Experimental findings from patent publication US5438064A, “Derivatives of 4-anilinoquinoline-3-carboxamide as analgesic agents” (American Home Products Corporation, priority 1991, dated 1995) are described below.

Where a name gives a salt, the structure may show the parent alone.

One experiment addresses T1, BK2 receptor sites in guinea pig ileum (Cavia porcellus, UniProt O70526).
T1 construct: The tissue is cut into small pieces and homogenized in 20 volumes of homogenization buffer; from tissue; host or cells: guinea pig distal ileum, membrane homogenate (Hartley strain, male, adult; animals from Charles River)
T1 sequence (O70526 1-372): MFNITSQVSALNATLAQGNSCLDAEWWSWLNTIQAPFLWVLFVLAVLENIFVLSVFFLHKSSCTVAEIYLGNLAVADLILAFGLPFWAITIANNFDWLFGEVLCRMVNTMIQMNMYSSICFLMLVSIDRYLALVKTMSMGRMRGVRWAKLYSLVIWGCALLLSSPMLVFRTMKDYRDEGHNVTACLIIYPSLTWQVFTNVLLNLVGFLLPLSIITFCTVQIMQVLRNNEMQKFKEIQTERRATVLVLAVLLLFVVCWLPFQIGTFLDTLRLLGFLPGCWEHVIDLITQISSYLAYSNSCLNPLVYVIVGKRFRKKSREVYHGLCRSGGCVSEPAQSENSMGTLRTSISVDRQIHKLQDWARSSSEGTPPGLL
The experiment is described as follows: Bradykinin Receptor Binding Assay (competition with 3H-bradykinin for BK2 receptor sites in guinea pig ileum). The settings on record: 80 pM 3H-BK, guinea pig ileum homogenate, 90 min, 25° C., pH 6.8; read-out: Bradykinin Binding in G.P. ileum, IC50. The protocol: 1. Bradykinin Receptor Binding Assay
The following procedure is used to identify compounds which compete specifically with triturated bradykinin (^3 H-BK) for BK2 receptor sites in guinea pig ileum.
The distal portion of adult, male guinea pig (Hartley strain, 350-500 g, Charles River) ileum is removed and placed in ice cold homogenization buffer [[…] N-tris (hydroxymethyl)methyl-2-aminoethane sulfonic acid (TES), 1 mM 1, 10-phenanthroline, adjusted to pH 6.8 with ammonium hydroxide].
The contents of the ileal lumen are rinsed out with cold homogenization buffer. The tissue is cut into small pieces and homogenized in 20 volumes of homogenization buffer 3 times of 10 seconds duration using a Brinkman Polytron homogenizer equipped with a PTA 10 TS generator at setting 5.
The homogenate is fillered through a surgical gauze sponge and centrifuged at 50,000 × g for 20 minutes at 4° C. The supernatant fluid is discarded and the homogenization and centrifugation procedures are repeated. After discarding the supernatant fluid, the final pellet is resuspended in 40 volumes of assay buffer (25 mM TES, pH 6.8, 1 mM 1,10-phenanthroline, 1 mM dithiothreitol, 2 μM captopril, 140 μg/ml bacitracin and 0.1% bovine serum albumin (BSA)). The homogenate is filtered once more through a surgical gauze sponge and kept on ice until used. The assay is performed using only polypropylene pipet tips and polypropylene test tubes. Each tube receives 100 μl of 800 pM ^3 H-BK, 100 μl of the test compound solution […] or vehicle (assay buffer), and 100 μl of 25 mg/ml tissue homogenate in a total volume of 1 ml. The final concentration of 3H-BK is 80 pM. The final tissue concentration is 2.5 mg/ml. Compounds are screened at 100 μM. Compounds which are not soluble in water are first solubilized in DMSO and then diluted 1:100 in the assay buffer. Addition of 100 μl of this sample to the assay will yield a final DMSO concentration of 0.1% which has been shown not to affect the binding assay. Nonspecific binding is determined in the presence of 1 μM unlabeled bradykinin. All determinmions are made in triplicate. Three 100 μl aliquots of the 800 pM 3H-BK working solution are added directly to scintillation vials to determine the total added radioactivity.
The tubes are incubated for 90 minutes at 25° C. while being gently agitated on an orbital shaker. Bound ligand is separated from free ligand, using Whatman GF/B glass fiber filters (pretreated with 0.1% aqueous polyethyleneimine made neutral with HCl). A Brandel receptor binding harvester is used. Assay tubes and glass fiber filters are rinsed three times with 3 ml of cold physiological saline.
The filter discs are transferred to 20 ml scintillation vials. Ten ml of aqueous sample LSC cocktail (Aquassure, New England Nuclear) is added to each vial. After capping, the vials are agitated for 5 minutes on an orbital shaker. The samples are counted for ten minutes in a refrigerated liquid scintillation counter to obtain the following values: Bt (total binding), Bns (non-specific binding) and Bx (total binding in the presence of the test compound). From these values, control specific binding (C=Bt -Bns), specific binding in the presence of the test compound (D=Bx -Bns), percent of control (D/C ×100) and percent inhibition (1-D/C)×100 are calculated.
If 50% inhibition is obtained at the screening concentration, the compound is considered active and a dilution series (typically 1:3 serial dilutions of the test compound) is tested in the binding assay. After calculation of the percent of control of each dilution, the values are analyzed and the IC50 with its 95% confidence limits is determined.
`COc1cccc2c(Nc3ccc(C(=O)NC4CCN(Cc5ccccc5)CC4)cc3)c(C(=O)NC3CCN(Cc4ccc(C(C)(C)C)cc4)CC3)cnc12` [Ex. 1, N-[1-[4-(1,1-Dimethylethyl)phenyl]methyl-4-piperidinyl]-8-methoxy-4-[[4-[[[1-(phenylmethyl) -4-piperidinyl]amino]carbonyl]phenyl]amino]-3-quinolinecarboxamide]: the IC50 (commonly the concentration that gives 50% inhibition) stood at 430 nM.
Still for that read-out and setting: with `COc1cccc2c(Nc3ccc(C(=O)NC4CCN(Cc5ccccc5)CC4)cc3)c(C(=O)NC3CCN(Cc4cccc(Cl)c4)CC3)cnc12` [Ex. 2] the figure was 79 nM.
The same measure, in the same setting: in the case of `COc1cccc2c(Nc3ccc(C(=O)NC4CCN(Cc5ccccc5)CC4)cc3)c(C(=O)NC3CCN(Cc4ccccc4)CC3)cnc12` [Ex. 3] it was 93 nM; in that of `COc1cccc2c(Nc3ccc(C(=O)NC4CCN(Cc5ccccc5)CC4)cc3)c(C(=O)NCCN(C)C)cnc12` [Ex. 4, N-[2-(Dimethylamino)ethyl]-8-methoxy-4-[[4-[[[1-(phenylmethyl) -4-piperidinyl]amino]carbonyl]phenyl]amino]-3-quinolinecarboxamide trifluoroacetate (1:4)], 2700 nM; in that of `CCN(CCN(C)C)C(=O)c1cnc2c(OC)cccc2c1Nc1ccc(C(=O)NC2CCN(Cc3ccccc3)CC2)cc1` [Ex. 5, N-[2-(Dimethylamino)ethyl]-N-ethyl-8-methoxy-4-[[4-[[[1-(phenylmethyl)-4-piperidinyl]amino]carbonyl]phenyl]amino]-3-quinolinecarboxamide], 2900 nM.
Take `CCN(CC)C(=O)CCCCCN1CCC(N(Cc2ccc(Nc3c(C(=O)NC4CCN(Cc5ccccc5)CC4)cnc4c(OC)cccc34)cc2)C(=O)CCC2CCCC2)CC1` [Ex. 6]: the IC50 was determined as 1440 nM.
With `CCCCN1CCC(NC(=O)c2cnc3c(OC)cccc3c2Nc2ccc(C(=O)NC3CCN(Cc4ccccc4)CC3)cc2)CC1` [Ex. 8, N-(1-Butyl-4-piperidinyl)-8-methoxy-4-[[4-[[[1-(phenylmethyl) -4-piperidinyl]amino]carbonyl]phenyl]amino]-3-quinolinecarboxamide], the IC50 was found to be 1200 nM.
The same measure, in the same setting: with `CCN(CC)C(=O)CCCCCN1CCC(NC(=O)c2cnc3c(OC)cccc3c2Nc2ccc(C(=O)NC3CCN(Cc4ccccc4)CC3)cc2)CC1` [Ex. 9, N-[1-[6-(Diethylamino)-6-oxohexyl]-4-piperidinyl]-8-methoxy-4-[[4-[[[1-(phenylmethyl)-4-piperidinyl]amino]carbonyl]-phenyl]amino]-3-quinolinecarboxamide] the figure was 2600 nM; with `CCN(CC)C(=O)c1cccc(CN2CCC(NC(=O)c3cnc4c(OC)cccc4c3Nc3ccc(C(=O)NC4CCN(Cc5ccccc5)CC4)cc3)CC2)c1` [Ex. 11], 1600 nM.
On the same count and under the same terms, in the case of `COc1cccc2c(Nc3ccc(C(=O)NC4CCN(Cc5ccccc5)CC4)cc3)c(C(=O)NC3CCN(CCc4ccccc4)CC3)cnc12` [Ex. 12, N-[1-(2-Phenylethyl)-4-piperidinyl]-8-methoxy-4-[[4-[[[1-(phenylmethyl)-4piperidinyl]amino]carbonyl]phenyl]amino]-3-quinolinecarboxamide] it was 670 nM.
Still for that read-out and setting: with `CCCCN1CCC(NC(=O)c2ccc(Nc3c(C(=O)NC4CCN(Cc5ccccc5)CC4)cnc4c(OC)cccc34)cc2)CC1` [Ex. 13, 4-[[4-[[(1-Butyl-4-piperidinyl)amino]carbonyl]phenyl]amino]-8-methoxy-N-[1-(phenylmethyl)-4-piperidinyl]-3-quinoinecarboxamide] the figure was 2900 nM; with `COc1cccc2c(Nc3ccc(C(=O)NC4CCN(Cc5ccccc5)CC4)cc3)c(C(=O)N(C)C3CCN(C)CC3)cnc12` [Ex. 14], 1400 nM; with `COc1cccc(CN2CCC(NC(=O)c3cnc4c(OC)cccc4c3Nc3ccc(C(=O)NC4CCN(Cc5ccccc5)CC4)cc3)CC2)c1` [Ex. 15, N-[1-[(3-Methoxyphenyl)methyl]-4-piperidinyl]-8-methoxy-4-[[4-[[[1-(phenylmethyl)-4-piperidinyl]amino]carbonyl]phenyl]amino]-3-quinoline-carboxamide], 220 nM.
Turning to `COc1cccc2c(Nc3ccc(C(=O)NC4CCN(Cc5ccccc5)CC4)cc3)c(C(=O)NC3CCN(Cc4cccc(C(F)(F)F)c4)CC3)cnc12` [Ex. 16], the 50% inhibitory concentration (IC50) was determined as 250 nM.
With `O=C(NC1CCN(Cc2ccccc2)CC1)c1ccc(Nc2c(C(=O)NC3CCN(Cc4ccccc4)CC3)cnc3cc(Cl)ccc23)cc1` [Ex. 17, 7-Chloro-N-[1-(phenylmethyl)-4-piperidinyl]-4-[[4-[[[1-(phenylmethyl)-4-piperidinyl]amino]carbonyl]phenyl]amino]-3-quinolinecarboxamide], the IC50 stood at 430 nM.

Staying with this experiment, now noted: at 10 μM; 80 pM 3H-BK, guinea pig ileum homogenate; read-out: Bradykinin Binding in G.P. ileum, % inhibition at 10 μM.
As to `CCCCN1CCC(NCc2ccc(Nc3c(C(=O)NC4CCN(Cc5ccccc5)CC4)cnc4c(OC)cccc34)cc2)CC1` [Ex. 7, 4-[[4-[[(1-Butyl-4-piperidinyl)amino]methyl]phenyl]amino]-8-methoxy-N-[1-(phenyimethyl)-4-piperidinyl]-3-qinolinecarboxamide], the inhibition (commonly how much of the control response was suppressed) at 10 µM stood at 50.5%.
On the same count and under the same terms, with `CCCCN1CCC(N(Cc2ccc(Nc3c(C(=O)NC4CCN(Cc5ccccc5)CC4)cnc4c(OC)cccc34)cc2)C(=O)CCC)CC1` [Ex. 10] the figure was 42.8%.

The test system of a further experiment is bradykinin-induced writhing in mice. The experiment is described as follows: Bradykinin-induced Writhing in Mice. Type of experiment: in vivo, mice (male CD-1). The settings on record: 30 mg/kg i.p., mice. The protocol:
2. Bradykinin-induced Writhing in Mice
Male CD-1 Charles River mice (14-19g), fasted overnight but having free access to water, in groups of 10 (control and treated) are given an intraperitoneal (j.p.) injection of 1 mg/kg of prostaglandin PGE2 in phosphate buffered saline (10 μl/g) and after 20 minutes each mouse receives an i.p. injection of bradykinin (0.5 mg/kg in saline). The treatment group of mice receive a test compound either orally 1 hour prior to administration of bradykinin or i.p. 2 minutes prior to administration of bradykinin. Test compounds are given in saline if soluble or as a suspension in 0.5% Tween 80. The percent inhibition of writhing obtained is calculated as follows: [formula] where C is the mean number of writhes in the control group and D is the mean number of writhes in the drag group. If 30% inhibition or higher is observed with the screening dose, the test compound is considered active. Several logarithmically spaced doses will be tested and the ED50 determined by regression methods with inverse prediction.
On to `COc1cccc2c(Nc3ccc(C(=O)NC4CCN(Cc5ccccc5)CC4)cc3)c(C(=O)NC3CCN(Cc4ccccc4)CC3)cnc12` [Ex. 3], for which the “Bradykinin-induced writhing, % inhibition at 30 mg/kg i.p.” value came out at 20%.
Same read-out and setting: in the case of `CCCCN1CCC(NC(=O)c2cnc3c(OC)cccc3c2Nc2ccc(C(=O)NC3CCN(Cc4ccccc4)CC3)cc2)CC1` [Ex. 8, N-(1-Butyl-4-piperidinyl)-8-methoxy-4-[[4-[[[1-(phenylmethyl) -4-piperidinyl]amino]carbonyl]phenyl]amino]-3-quinolinecarboxamide] it was 32%; in that of `CCN(CC)C(=O)CCCCCN1CCC(NC(=O)c2cnc3c(OC)cccc3c2Nc2ccc(C(=O)NC3CCN(Cc4ccccc4)CC3)cc2)CC1` [Ex. 9, N-[1-[6-(Diethylamino)-6-oxohexyl]-4-piperidinyl]-8-methoxy-4-[[4-[[[1-(phenylmethyl)-4-piperidinyl]amino]carbonyl]-phenyl]amino]-3-quinolinecarboxamide], 46%.

Staying with this experiment, now noted: 100 mg/kg p.o., mice.
As to `CC(C(=O)O)c1cccc(C(=O)c2ccccc2)c1` (stereo not drawn) [Ketoprofen], the “Bradykinin-induced writhing, % inhibition” value turned out to be 52%.

Staying with this experiment, now noted: 200 mg/kg p.o., mice.
Turning to `CC(C)Cc1ccc(C(C)C(=O)O)cc1` (stereo not drawn) [Ibuprofen], the “Bradykinin-induced writhing, % inhibition” value amounted to 43%.

Still in this experiment, the particulars now being: 300 mg/kg p.o., mice.
As for `CC(=O)Nc1ccc(O)cc1` [Acetaminophen], the “Bradykinin-induced writhing, % inhibition” value stood at 20%.

Staying with this experiment, now noted: Mus musculus, po, read-out: Bradykinin-induced writhing, ED50.
In the case of `CN1CC[C@]23c4c5ccc(O)c4O[C@H]2[C@@H](O)C=C[C@H]3[C@H]1C5` [Morphine], the median effective dose (ED50) (usually the dose at which the effect has come halfway, by size or by number of responders) worked out at 4.5 mg/kg.
